Test results published in ChEMBL document CHEMBL5042549, “Discovery of Inhibitors of the Lipopolysaccharide Transporter MsbA: From a Screening Hit to Potent Wild-Type Gram-Negative Activity” (J Med Chem, 2022).
pIC50: −log10 of the molar value. In brackets after ≈: the same amount, converted by molar mass.

Key:
Escherichia coli [1] = assay: Antibacterial activity against wild type Escherichia coli CFT073 (ATCC 700928) assessed as bacterial growth by broth microdilution assay; assay type: functional
[2] = Lipophilicity, logD of compound by shake flask method; assay type: physicochemical; settings: octanol/water
[3] = Inhibition of Escherichia coli MsbA preincubated for 10 mins followed by ATP addition and incubated for 1 hr by fluorescence polarization assay
Escherichia coli [4] = assay: Antibacterial activity against wild type Escherichia coli MG1655 carrying lptD (imp4213) assessed as bacterial growth inhibition by broth microdilution assay; assay type: functional
Klebsiella pneumoniae = assay: Antibacterial activity against wild type Klebsiella pneumoniae MGH78578 (ATCC 700721) assessed as bacterial growth inhibition by broth microdilution assay; assay type: functional
Escherichia coli [5] = assay: Antibacterial activity against wild type Escherichia coli MG1655 msbA-cKO lptD (imp4213) expressing Acinetobacter baumannii MsbA assessed as bacterial growth inhibition by broth microdilution assay; assay type: functional
Escherichia coli [6] = assay: Antibacterial activity against wild type Escherichia coli MG1655 msbA-cKO lptD (imp4213) expressing Escherichia coli MsbA assessed as bacterial growth inhibition by broth microdilution assay; assay type: functional
HEK293 = assay: Cytotoxicity against human HEK293 cells at 50 uM; assay type: toxicity, cell-based; settings: hek293, 50 µM
Escherichia coli [7] = assay: Selectivity ratio of MIC for Escherichia coli MG1655 msbA-cKO lptD (imp4213) […]; assay type: functional
A549 = assay: Cytotoxicity against human A549 cells at 50 uM; assay type: toxicity, cell-based; settings: a549, 50 µM
Enterobacter cloacae = assay: Antibacterial activity against wild type Enterobacter cloacae (ATCC 13047) assessed as bacterial growth inhibition by broth microdilution assay; assay type: functional
Jurkat = assay: Cytotoxicity against human Jurkat cells at 50 uM; assay type: toxicity, cell-based

Compound	MIC (Escherichia coli [1]) [µM]	logD [2]	pIC50 [3]	other results
C[C@H](Oc1ccc(NC(=O)CC(N)=O)c(C2CC2)c1)c1c(Cl)ccc(F)c1Cl	> 100	3.9	7.40	MIC (Escherichia coli [4]): 25 µM (≈ 10.6 µg/mL)
C[C@H](Oc1ccc2ncc(/C=C/C(=O)O)c(C3COC3)c2c1)c1c(Cl)ccc(F)c1Cl	> 100	–	6.92	–
C[C@H](Oc1ccc2ncc(/C=C/C(=O)NC(CC(=O)O)CC(=O)O)c(C3CC3)c2c1)c1c(Cl)ccc(F)c1Cl	> 100	0.4	8.05	–
C[C@H](Oc1ccc2c(c1)c(C1CC1)c(/C=C/C(=O)O)c[n+]2[O-])c1c(Cl)ccc(F)c1Cl	> 100	1.7	7.89	–
CC(C)Oc1ccc2ncc(/C=C/C(=O)O)c(C3CC3)c2c1	> 100	–	< 5.00	–
C[C@H](Oc1ccc(/C=C/C(=O)O)c(C2CC2)c1)c1c(Cl)ccc(F)c1Cl	> 100	3.6	7.00	MIC (Escherichia coli [4]): 100 µM (≈ 39.5 µg/mL)
C[C@H](Oc1cccc(C2CC2)c1)c1c(Cl)ccc(F)c1Cl	> 100	5	< 5.00	MIC (Escherichia coli [4]): > 100 µM
C[C@H](Oc1cc(CC#N)c2ncc(/C=C/C(=O)O)c(C3CC3)c2c1)c1c(Cl)ccc(F)c1Cl	79	2.8	7.70	–
CC(Oc1ccc2ncc(/C=C/C(=O)O)c(C3CC3)c2c1)c1c(Cl)cccc1C#N (stereo not drawn)	> 100	2.2	7.62	–
C[C@H](Oc1ccnc(C2CC2)n1)c1c(Cl)ccc(F)c1Cl	> 100	4.2	6.35	MIC (Escherichia coli [4]): > 100 µM
C[C@H](Oc1ccc2ncc(/C=C/C(=O)O)cc2c1)c1c(Cl)ccc(F)c1Cl	> 100	2.5	6.85	–
Cc1c(/C=C/C(=O)O)ccc2ccc(O[C@@H](C)c3c(Cl)ccc(F)c3Cl)cc12	> 100	4.5	7.49	–
C[C@H](Oc1cccc(C2CC2)n1)c1c(Cl)ccc(F)c1Cl	> 100	4.9	< 5.00	MIC (Escherichia coli [4]): > 100 µM
C[C@H](Oc1ccc2ncc(/C=C/C(=O)O)c(C3CC3)c2c1)c1c(Cl)ccc(N)c1Cl	63	2.8	7.85	–
C[C@H](Oc1ccc2c(c1)CN(CCC(=O)O)CC2)c1c(Cl)ccc(F)c1Cl	> 100	–	< 4.30	–
Cc1cc(O[C@@H](C)c2c(Cl)ccc(F)c2Cl)ccc1/C=C/C(=O)O	> 100	3.2	5.66	MIC (Escherichia coli [4]): > 100 µM
C[C@H](Oc1ccc(/C=C/C(=O)O)c(CC2CC2)c1)c1c(Cl)ccc(F)c1Cl	> 100	3.9	6.34	MIC (Escherichia coli [4]): 50 µM (≈ 20.5 µg/mL)
C[C@H](Oc1ccc(NC(=O)CC(N)=O)c(C2CC2)n1)c1c(Cl)ccc(F)c1Cl	> 100	3.7	7.57	MIC (Escherichia coli [4]): 12 µM (≈ 5.12 µg/mL)
C[C@H](Oc1ccc2nnc(/C=C/C(=O)O)c(C3CC3)c2c1)c1c(Cl)ccc(F)c1Cl	> 100	3.2	7.70	–
CC(Oc1ccc2ncc(/C=C/C(=O)O)cc2c1)C1CCCCC1 (stereo not drawn)	–	3	4.41	–
C[C@H](Oc1ccc(/C=C/C(=O)O)cc1)c1c(Cl)ccc(F)c1Cl	> 100	2.8	5.24	MIC (Escherichia coli [4]): > 100 µM
C[C@H](Oc1ccc2ncc(/C=C/c3nn[nH]n3)c(C(F)F)c2c1)c1c(Cl)cccc1Cl	25	3.3	8.10	MIC (Klebsiella pneumoniae): 25 µM (≈ 11.6 µg/mL); MIC (Escherichia coli [5]): 50 µM (≈ 23.1 µg/mL); MIC (Escherichia coli [6]): 1.6 µM (≈ 0.74 µg/mL); Activity (HEK293): Non-Toxic; Selectivity ratio (Escherichia coli [7]): 31; Activity (A549): Non-Toxic; MIC (Enterobacter cloacae): 50 µM (≈ 23.1 µg/mL); Activity (Jurkat): Non-Toxic
C[C@H](Oc1cc(B(O)O)c2ncc(/C=C/C(=O)O)c(C3CC3)c2c1)c1c(Cl)ccc(F)c1Cl	> 100	–	6.82	–

More lines, main results first:

MIC (Escherichia coli [1]) [µM]	logD [2]	pIC50 [3]	Compound	other results
> 100	2	6.26	O=C(O)/C=C/c1cnc2ccc(O[C@@H](CO)c3c(Cl)cccc3Cl)cc2c1C1CC1	–
> 100	–	7.38	C[C@H](Oc1ccc2ncc(O)c(C3CC3)c2c1)c1c(Cl)ccc(F)c1Cl	–
> 100	2.6	7.34	C[C@H](Oc1nccc(N(c2nc(C(=O)O)cs2)C2CC2)n1)c1c(Cl)ccc(F)c1Cl	–
> 100	2.3	6.96	C[C@H](Oc1ccc2ncc(/C=C/C(=O)O)c(C#N)c2c1)c1c(Cl)ccc(F)c1Cl	–
> 100	0.9	< 5.00	Cc1cnn(C)c1[C@H](C)Oc1ccc2ncc(/C=C/C(=O)O)c(C3CC3)c2c1	–
35	2.9	8.70	C[C@H](Oc1ccc2ncc(/C=C/C(=O)NS(C)(=O)=O)c(C3CC3)c2c1)c1c(Cl)cccc1Cl	–
> 100	–	5.14	C[C@H](Oc1ccc2c(=O)nc(/C=C/C(=O)O)n(C3CC3)c2c1)c1c(Cl)ccc(F)c1Cl	–
> 100	2.5	7.11	C[C@H](Oc1ccc2ncc(S(=O)(=O)CC(=O)O)c(C3CC3)c2c1)c1c(Cl)ccc(F)c1Cl	–
12	3.7	8.52	C[C@H](Oc1ccc2ncc(/C=C/c3nn[nH]n3)c(C3CC3)c2c1)c1c(Cl)ccc(F)c1Cl	–
30	3.7	8.70	C[C@H](Oc1ccc2ncc(/C=C/C(=O)O)c(C3CC3)c2c1)c1c(Cl)cccc1Cl	–
> 100	1.9	7.22	C[C@H](Oc1ccc(NC(=O)CC(=O)O)c(C2CC2)c1)c1c(Cl)ccc(F)c1Cl	MIC (Escherichia coli [4]): 71 µM (≈ 30.3 µg/mL)
> 100	> 5.5	8.15	C[C@H](Oc1ccc2ncc(/C=C/C(N)=O)c(C3CC3)c2c1)c1c(Cl)ccc(F)c1Cl	–
25	3.1	8.10	C[C@H](Oc1ccc2ncc(/C=C/C(=O)O)c(C(F)F)c2c1)c1c(Cl)ccc(F)c1Cl	–
> 100	3	7.70	Cc1c(/C=C/C(=O)O)cnc2ccc(O[C@@H](C)c3c(Cl)ccc(F)c3Cl)cc12	–
> 100	2.7	8.22	C[C@H](Oc1ccc2ncc(-c3ccn(CCC(=O)O)n3)c(C3CC3)c2c1)c1c(Cl)cccc1Cl	–
> 100	2	5.66	C[C@H](Oc1ccc2ncc(/C=C/C(=O)O)c(-n3ccnc3)c2c1)c1c(Cl)ccc(F)c1Cl	–
> 100	3.8	7.49	C[C@H](Oc1ccc2nc(OCCN)c(CCC(=O)O)c(C3CC3)c2c1)c1c(Cl)ccc(F)c1Cl	–
> 100	2.3	7.74	C[C@H](Oc1ccc2ncc(/C=C/C(=O)O)c(C3CC3)c2c1)c1c(Cl)ccnc1Cl	–
> 100	1.4	7.92	C[C@H](Oc1ccc(NC(=O)CC(=O)O)c(C2CC2)n1)c1c(Cl)ccc(F)c1Cl	MIC (Escherichia coli [4]): 31 µM (≈ 13.2 µg/mL)
> 100	–	7.60	C[C@H](Oc1ccc2ncc(/C=C/C(=O)O)c(CF)c2c1)c1c(Cl)ccc(F)c1Cl	–
> 100	3.6	6.54	C[C@H](Oc1ccc2ncc(/C=C/C(=O)O)c(N(C)C)c2c1)c1c(Cl)ccc(F)c1Cl	–
> 100	–	7.92	C[C@H](Oc1cnc2cnc(/C=C/C(=O)O)c(C3CC3)c2c1)c1c(Cl)cccc1Cl	–
> 100	4.3	5.47	C[C@H](Oc1ccnc(C2CC2)c1)c1c(Cl)ccc(F)c1Cl	MIC (Escherichia coli [4]): > 100 µM
12	4.3	8.70	C[C@H](Oc1ccc2ncc(/C=C/c3nn[nH]n3)c(C3CC3)c2c1)c1c(Cl)cccc1Cl	MIC (Klebsiella pneumoniae): 12 µM (≈ 5.43 µg/mL); MIC (Escherichia coli [5]): 50 µM (≈ 22.6 µg/mL); MIC (Escherichia coli [6]): < 0.1 µM; Activity (HEK293): Non-Toxic; Selectivity ratio (Escherichia coli [7]): > 500; Activity (A549): Non-Toxic; MIC (Enterobacter cloacae): 25 µM (≈ 11.3 µg/mL); Activity (Jurkat): Non-Toxic
> 100	4.1	8.15	C[C@H](Oc1ccc2ncc(CCC(=O)O)c(C3CC3)c2c1)c1c(Cl)ccc(F)c1Cl	–
79	4.1	8.40	C[C@H](Oc1ccc2ncc(/C=C/C(=O)O)c(C3CC3)c2c1)c1c(Cl)ccc(F)c1Cl	–
> 100	1.9	5.30	C[C@H](Oc1ccc2ncc(/C=C/C(=O)O)c(O)c2c1)c1c(Cl)ccc(F)c1Cl	–
> 100	3.1	8.30	C[C@H](Oc1ccc2ncc(/C=C/C(=O)N3CC[C@@H](N)[C@H](C(=O)O)C3)c(C3CC3)c2c1)c1c(Cl)ccc(F)c1Cl (mixture of isomers)	–
> 100	2.9	8.00	C[C@H](Oc1cc(CO)c2ncc(/C=C/C(=O)O)c(C3CC3)c2c1)c1c(Cl)ccc(F)c1Cl	–
> 100	2.5	7.85	C[C@H](Oc1ccc2ncc(/C=C/S(=O)(=O)O)c(C3CC3)c2c1)c1c(Cl)ccc(F)c1Cl	–
